Measured values: publication PMC9069370, “Integrated Design of a Membrane‐Lytic Peptide‐Based Intravenous Nanotherapeutic Suppresses Triple‐Negative Breast Cancer” (Advanced Science, 2022)
Peptide text beside a SMILES is read from it.

What was measured:
[1] = test system: HMLER; experiment: cells; assay type: cell-based, human; conditions: 72 h
Source text: (§1) […], and MCF-10A cells were maintained in MEGM with supplements and growth factors bovine pituitary extract, hydrocortisone, human epidermal growth factor, insulin, and gentamicin/amphotericin-B.

[2] = test system: HMLER‐shEcad; experiment: cells; assay type: cell-based, human; conditions: 72 h
Source text: as §1

[3] = test system: MCF‐10A; experiment: cells; assay type: cell-based, human; conditions: 72 h
Source text: as §1

[4] = test system: U2OS; assay type: cell-based, human; conditions: 72 h
[5] = test system: HEK293T; experiment: cells; assay type: cell-based, human; conditions: 72 h
[6] = Tryptophan fluorescent binding assay; conditions: tryptophan fluorescence; 50 µM peptide, lipid titrated 0-5000 µM; phosphate buffered saline 1X, pH 7.4; values as lipid per peptide
Protocol: 50 µM ACP peptides and varied concentrations (concentrations: 0, 25, 50, 100, 150, 200, 250, 500, 1250, and 2500 µM) of POPC or POPC:POPG (3:1 ratio) large unilamellar vesicles were prepared in 10 mM phosphate buffer (pH 7.0). The solutions were measured after 1 h of incubation. Excitation was fixed at 280 nm (slit 9 nm) and emission was collected from 300 to 450 nm (slit 9 nm). The spectra were recorded using Cytation 5 Cell Imaging Multi‐Mode Reader from BioTek and were averaged by three scans.
Lipid Concentration-induced
Name Sequence† 50% Peptide Binding (L/P)
Extended Data Table 3 | Tryptophan binding assay. […]
peptide binding onto liposome. 50 µM peptides were fixed and incubated with titrated lipid (POPC vesicle […]
phosphate buffered saline (1X, pH 7.4). The lipid concentration that causes 50 % peptide binding was determined using tryptophan fluorescent binding assay and the values are shown as lipid per peptide.

[7] = ANTS/DPX liposome leakage assay; conditions: 0.5 mM vesicles, peptide 0-20 µM, 3 h incubation, lipid per peptide; for Peptide Concentration-induced 50 % ANTS/DPX leakage at pH 4.8 (L/P), 3POPC/1POPG Vesicle / Peptide Concentration-induced 50 % ANTS/DPX leakage at pH 4.8 (L/P), POPC Vesicle: HCl-adjusted PBS 1X pH 4.8; for Peptide Concentration-induced 50 % ANTS/DPX leakage at pH 7.4 (L/P), 3POPC/1POPG Vesicle / Peptide Concentration-induced 50 % ANTS/DPX leakage at pH 7.4 (L/P), POPC Vesicle: PBS 1X pH 7.4, high ratio = more potent
Protocol: Vesicle preparation: 5 mM ANTS and 12.5 mM DPX were entrapped in 0.1 µm diameter extruded vesicles (either POPC or POPC/POPG at a ratio of 3:1) with lipids. Gel filtration chromatography of Sephadex G‐100 was used to remove external free ANTS/DPX from LUVs with entrapped contents. LUVs were diluted to 0.5 mM and used to measure the leakage activity by the addition of aliquots of ACPs. Leakage was measured after 3 h incubation. 10% Triton was used as the positive control to measure the maximum leakage of the vesicle. Fluorescence emission spectra were recorded using excitation and emission wavelength of 350 and 510 nm for ANTS/DPX using a BioTek Synergy H1 Hybrid Multi‐Mode Reader.
Peptide Concentration-induced Peptide Concentration-induced
Name Sequence† 50 % ANTS/DPX leakage 50 % ANTS/DPX leakage at pH 7.4 (L/P) at pH 4.8 (L/P)
POPC Vesicle 3POPC/1POPG Vesicle POPC Vesicle 3POPC/1POPG Vesicle […]
Extended Data Table 4 | Peptide concentration-induced 50 % ANTS/DPX liposome leakage. 0.5 mM POPC and 3POPC/1POPG vesicles were fixed and incubated with titrated peptide concentration (0, 0.02, […]
hydrochloric acid-adjusted phoshate buffered saline (1X, pH 4.8). The values are shown as lipid per

Compound | IC50 [1] [µM] | IC50 [2] [µM] | IC50 [3] [µM] | IC50 [4] [µM] | IC50 [5] [µM] | Lipid Concentration-induced 50% Peptide Binding (L/P), 3POPC/1POPG Vesicle [6] [L/P] | Lipid Concentration-induced 50% Peptide Binding (L/P), POPC Vesicle [6] [L/P] | Peptide Concentration-induced 50 % ANTS/DPX leakage at pH 4.8 (L/P), 3POPC/1POPG Vesicle [7] [L/P] | Peptide Concentration-induced 50 % ANTS/DPX leakage at pH 4.8 (L/P), POPC Vesicle [7] [L/P] | Peptide Concentration-induced 50 % ANTS/DPX leakage at pH 7.4 (L/P), 3POPC/1POPG Vesicle [7] [L/P] | Peptide Concentration-induced 50 % ANTS/DPX leakage at pH 7.4 (L/P), POPC Vesicle [7] [L/P]
CC(C)C[C@H](NC(=O)CN)C(=O)N[C@@H](CC(C)C)C(=O)N[C@@H](CC(=O)O)C(=O)N[C@@H](CC(C)C)C(=O)N[C@@H](CC(C)C)C(=O)N[C@@H](CCC(=O)O)C(=O)N[C@@H](CC(C)C)C(=O)N[C@@H](CC(C)C)C(=O)N[C@@H](CC(C)C)C(=O)N[C@@H](Cc1c[nH]cn1)C(=O)N[C@@H](C)C(=O)N[C@@H](C)C(=O)NCC(=O)N[C@@H](Cc1c[nH]c2ccccc12)C(N)=O [DEH] (H-GLLDLLELLLHAAGW-NH2) | 5.35 ± 1.91 | 3.6 ± 0.42 | 20.2 ± 6.72 | 36.5 ± 3.92 | 10.5 ± 4.67 | 1.50 | 0.75 | 193 | 63 | 548 | 620
CC(C)C[C@H](NC(=O)CN)C(=O)N[C@@H](CC(C)C)C(=O)N[C@@H](CC(=O)O)C(=O)N[C@@H](CC(C)C)C(=O)N[C@@H](CC(C)C)C(=O)N[C@@H](CCCCN)C(=O)N[C@@H](CC(C)C)C(=O)N[C@@H](CC(C)C)C(=O)N[C@@H](CC(C)C)C(=O)N[C@@H](CCCCN)C(=O)N[C@@H](C)C(=O)N[C@@H](C)C(=O)NCC(=O)N[C@@H](Cc1c[nH]c2ccccc12)C(N)=O [DKK] (H-GLLDLLKLLLKAAGW-NH2) | 1.95 ± 0.35 | 1.2 ± 0.14 | 2.57 ± 0.52 | 10.4 ± 1.7 | 3.4 ± 0.28 | 6.88 | 2.75 | 227 | 47 | 156 | 463
CC(C)C[C@H](NC(=O)CN)C(=O)N[C@@H](CC(C)C)C(=O)N[C@@H](CC(=O)O)C(=O)N[C@@H](CC(C)C)C(=O)N[C@@H](CC(C)C)C(=O)N[C@@H](Cc1c[nH]cn1)C(=O)N[C@@H](CC(C)C)C(=O)N[C@@H](CC(C)C)C(=O)N[C@@H](CC(C)C)C(=O)N[C@@H](Cc1c[nH]cn1)C(=O)N[C@@H](C)C(=O)N[C@@H](C)C(=O)NCC(=O)N[C@@H](Cc1c[nH]c2ccccc12)C(N)=O [DHH] (H-GLLDLLHLLLHAAGW-NH2) | 21.4 ± 2.47 | 11.9 ± 0.14 | > 200 | 55.9 ± 18.9 | 6.4 ± 0.42 | 0.28 | 0.67 | 98 | 106 | 692 | 684
CC(C)C[C@H](NC(=O)CN)C(=O)N[C@@H](CC(C)C)C(=O)N[C@@H](CCC(=O)O)C(=O)N[C@@H](CC(C)C)C(=O)N[C@@H](CC(C)C)C(=O)N[C@@H](CCCCN)C(=O)N[C@@H](CC(C)C)C(=O)N[C@@H](CC(C)C)C(=O)N[C@@H](CC(C)C)C(=O)N[C@@H](CCCCN)C(=O)N[C@@H](C)C(=O)N[C@@H](C)C(=O)NCC(=O)N[C@@H](Cc1c[nH]c2ccccc12)C(N)=O [EKK] (H-GLLELLKLLLKAAGW-NH2) | 1.72 ± 0.21 | 1.19 ± 0.4 | 1.7 ± 0.11 | 12.2 ± 1.84 | 3.35 ± 0.49 | 0.63 | 1.50 | 219 | 60 | 235 | 1095
CC(C)C[C@H](NC(=O)CN)C(=O)N[C@@H](CC(C)C)C(=O)N[C@@H](CCCCN)C(=O)N[C@@H](CC(C)C)C(=O)N[C@@H](CC(C)C)C(=O)N[C@@H](CCC(=O)O)C(=O)N[C@@H](CC(C)C)C(=O)N[C@@H](CC(C)C)C(=O)N[C@@H](CC(C)C)C(=O)N[C@@H](CCCCN)C(=O)N[C@@H](C)C(=O)N[C@@H](C)C(=O)NCC(=O)N[C@@H](Cc1c[nH]c2ccccc12)C(N)=O [KEK] (H-GLLKLLELLLKAAGW-NH2) | 1.6 ± 0.14 | 1.35 ± 0.07 | 1.55 ± 0.07 | 8.15 ± 0.49 | 3.2 ± 0.14 | 0.50 | 0.47 | 126 | 110 | 438 | 1173
CC(C)C[C@H](NC(=O)CN)C(=O)N[C@@H](CC(C)C)C(=O)N[C@@H](CCC(=O)O)C(=O)N[C@@H](CC(C)C)C(=O)N[C@@H](CC(C)C)C(=O)N[C@@H](Cc1c[nH]cn1)C(=O)N[C@@H](CC(C)C)C(=O)N[C@@H](CC(C)C)C(=O)N[C@@H](CC(C)C)C(=O)N[C@@H](CCCCN)C(=O)N[C@@H](C)C(=O)N[C@@H](C)C(=O)NCC(=O)N[C@@H](Cc1c[nH]c2ccccc12)C(N)=O [EHK] (H-GLLELLHLLLKAAGW-NH2) | 1.35 ± 0.35 | 0.71 ± 0.13 | 3.6 ± 0.99 | 25 | 5.35 ± 0.07 | 0.42 | 0.56 | 117 | 55 | 505 | 981
CC(C)C[C@H](NC(=O)CN)C(=O)N[C@@H](CC(C)C)C(=O)N[C@@H](Cc1c[nH]cn1)C(=O)N[C@@H](CC(C)C)C(=O)N[C@@H](CC(C)C)C(=O)N[C@@H](CCCCN)C(=O)N[C@@H](CC(C)C)C(=O)N[C@@H](CC(C)C)C(=O)N[C@@H](CC(C)C)C(=O)N[C@@H](CCCCN)C(=O)N[C@@H](C)C(=O)N[C@@H](C)C(=O)NCC(=O)N[C@@H](Cc1c[nH]c2ccccc12)C(N)=O [HKK] (H-GLLHLLKLLLKAAGW-NH2) | 3.4 ± 0.71 | 2.6 ± 0.42 | 2.18 ± 0.39 | 12.23 ± 0.11 | 9.5 ± 0.99 | 0.14 | 0.18 | 106 | 106 | 90 | 657
